Experiments:
[1] = tested on: S. pneumoniae D39V; assay: fitness (endpoint OD595 vs no drug) (fraction); higher = more growth
Procedure, shortened: (§1)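 Background-subtracted growth curves were the basis for fitness, taken as the optical density at entry into stationary phase over the robust mean of no-drug control wells. A cap of 1 was applied. The curves came from OD595 readings every 30 min for 14 h at 37 °C, in 384-well plates seeded at OD595 0.01 with 30 µl, or 55 µl for S. pneumoniae.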

[2] = tested on: B. subtilis 168; assay: as above
Procedure, shortened: as §1

[3] = tested on: S. aureus DSM 20231; assay: as above
Procedure, shortened: as §1

[4] = tested on: S. aureus Newman; assay: Bliss interaction score (quartile over a dose matrix) (fitness difference); higher = more antagonism (negative = synergy)
Procedure, shortened: (§2)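 Growth in each well was taken as OD595 at entry into stationary phase. Dividing by the plate's robust no-drug mean and capping at 1 gave fitness, and single-drug fitness was inferred from the combination data. The Bliss score, observed minus product-expected fitness, is summarised by quartiles over technical, biological and donor/recipient replicates.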

[5] = tested on: S. pneumoniae D39V; assay: as above
Procedure, shortened: as §2

[6] = tested on: B. subtilis 168; assay: as above
Procedure, shortened: as §2

[7] = tested on: S. aureus DSM 20231; assay: as above
Procedure, shortened: as §2
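Wherever Bliss interaction score (quartile over a dose matrix) is given: first quartile when negative (synergy) and third quartile when positive (antagonism).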

CCC[C@@H]1C[C@@H](C(=O)N[C@@H]([C@H]2O[C@H](SC)[C@H](O)[C@@H](O)[C@H]2O)[C@@H](C)O)N(C)C1 [Lincomycin] + C[n+]1ccc(-c2cc[n+](C)cc2)cc1 [Paraquat]
fitness, [1], one replicate
Conditions	first compound 0.2 µg/mL	first compound 0.4 µg/mL	first compound 0.8 µg/mL
partner 1.5 µg/mL	0.83	0.758	0.675
partner 3 µg/mL	0.866	0.751	0.729
partner 6 µg/mL	0.889	0.802	0.776

Conditions	fitness
[1], first compound 0.215 µg/mL, partner 1.5 µg/mL	0.885
[1], first compound 0.215 µg/mL, partner 3 µg/mL	0.863
[1], first compound 0.215 µg/mL, partner 6 µg/mL	0.814
[1], first compound 0.43 µg/mL, partner 1.5 µg/mL	0.774
[1], first compound 0.43 µg/mL, partner 3 µg/mL	0.733
[1], first compound 0.43 µg/mL, partner 6 µg/mL	0.711
[1], first compound 0.86 µg/mL, partner 1.5 µg/mL	0.56
[1], first compound 0.86 µg/mL, partner 3 µg/mL	0.407
[1], first compound 0.86 µg/mL, partner 6 µg/mL	0.453
[2], first compound 0.1 µg/mL, partner 1.25 µg/mL	0.92
[2], first compound 0.1 µg/mL, partner 2.5 µg/mL	0.92
[2], first compound 0.1 µg/mL, partner 5 µg/mL	0.968
[2], first compound 0.2 µg/mL, partner 1.25 µg/mL	0.923
[2], first compound 0.2 µg/mL, partner 2.5 µg/mL	0.855
[2], first compound 0.2 µg/mL, partner 5 µg/mL	0.833
[2], first compound 0.4 µg/mL, partner 1.25 µg/mL	0.878
[2], first compound 0.4 µg/mL, partner 2.5 µg/mL	0.845
[2], first compound 0.4 µg/mL, partner 5 µg/mL	0.814
[3], first compound 0.1 µg/mL, partner 1.25 µg/mL	0.801
[3], first compound 0.1 µg/mL, partner 2.5 µg/mL	0.802
[3], first compound 0.1 µg/mL, partner 5 µg/mL	0.838
[3], first compound 0.2 µg/mL, partner 1.25 µg/mL	0.739
[3], first compound 0.2 µg/mL, partner 2.5 µg/mL	0.719
[3], first compound 0.2 µg/mL, partner 5 µg/mL	0.692
[3], first compound 0.4 µg/mL, partner 5 µg/mL	0.28

Conditions	Bliss interaction score
[4]	-0.191
[5]	0.0842
[6]	0.0402
[7]	-0.0564

CCC[C@@H]1C[C@@H](C(=O)N[C@@H]([C@H]2O[C@H](SC)[C@H](O)[C@@H](O)[C@H]2O)[C@@H](C)O)N(C)C1 [Lincomycin] + Cc1cc(NS(=O)(=O)c2ccc(N)cc2)no1 [Sulfamethoxazol]
fitness, one replicate
Conditions	first compound 0.2 µg/mL	first compound 0.4 µg/mL	first compound 0.8 µg/mL	first compound 1.6 µg/mL
[1], partner 1 µg/mL	0.731	0.674	0.323	–
[1], partner 2 µg/mL	0.761	0.688	0.346	–
[1], partner 4 µg/mL	0.724	0.621	0.308	–
[2], partner 0.5 µg/mL	–	0.903	0.806	0.862
[2], partner 1 µg/mL	–	–	0.76	0.698
[2], partner 2 µg/mL	–	–	0.795	0.788

fitness
Conditions	first compound 0.1 µg/mL	first compound 0.2 µg/mL	first compound 0.215 µg/mL	first compound 0.4 µg/mL	first compound 0.43 µg/mL	first compound 0.86 µg/mL
[1], partner 1 µg/mL	–	–	0.746	–	0.658	0.252
[1], partner 2 µg/mL	–	–	0.762	–	0.676	0.214
[1], partner 4 µg/mL	–	–	0.786	–	0.691	0.265
[2], partner 1 µg/mL	0.831	0.862	–	0.891	–	–
[2], partner 2 µg/mL	0.872	0.874	–	0.841	–	–
[2], partner 4 µg/mL	0.893	0.938	–	0.895	–	–
[3], partner 1 µg/mL	0.82	0.616	–	0.343	–	–
[3], partner 2 µg/mL	0.815	0.687	–	0.37	–	–
[3], partner 4 µg/mL	0.828	0.697	–	0.304	–	–

Conditions	Bliss interaction score
[4]	0.0671
[5]	-0.128
[6]	-0.0615
[7]	-0.0797

CCC[C@@H]1C[C@@H](C(=O)N[C@@H]([C@H]2O[C@H](SC)[C@H](O)[C@@H](O)[C@H]2O)[C@@H](C)O)N(C)C1 [Lincomycin] + Cc1ncc([N+](=O)[O-])n1CCO [Metronidazole]
Conditions	fitness
[1], first compound 0.2 µg/mL, partner 1.073 µg/mL	0.752
[1], first compound 0.2 µg/mL, partner 2.145 µg/mL	0.681
[1], first compound 0.2 µg/mL, partner 4.29 µg/mL	0.659
[1], first compound 0.215 µg/mL, partner 1.25 µg/mL	0.874
[1], first compound 0.215 µg/mL, partner 2.5 µg/mL	0.87
[1], first compound 0.215 µg/mL, partner 5 µg/mL	0.844
[1], first compound 0.4 µg/mL, partner 1.073 µg/mL	0.68
[1], first compound 0.4 µg/mL, partner 2.145 µg/mL	0.654
[1], first compound 0.4 µg/mL, partner 4.29 µg/mL	0.647
[1], first compound 0.43 µg/mL, partner 1.25 µg/mL	0.765
[1], first compound 0.43 µg/mL, partner 2.5 µg/mL	0.761
[1], first compound 0.43 µg/mL, partner 5 µg/mL	0.738
[1], first compound 0.8 µg/mL, partner 1.073 µg/mL	0.502
[1], first compound 0.8 µg/mL, partner 2.145 µg/mL	0.435
[1], first compound 0.8 µg/mL, partner 4.29 µg/mL	0.428
[1], first compound 0.86 µg/mL, partner 1.25 µg/mL	0.579
[1], first compound 0.86 µg/mL, partner 2.5 µg/mL	0.578
[1], first compound 0.86 µg/mL, partner 5 µg/mL	0.557
[2], first compound 0.1 µg/mL, partner 0.625 µg/mL	0.971
[2], first compound 0.1 µg/mL, partner 1.25 µg/mL	0.93
[2], first compound 0.1 µg/mL, partner 2.5 µg/mL	0.887
[2], first compound 0.2 µg/mL, partner 0.625 µg/mL	0.928
[2], first compound 0.2 µg/mL, partner 1.25 µg/mL	0.9
[2], first compound 0.2 µg/mL, partner 2.5 µg/mL	0.876
[2], first compound 0.4 µg/mL, partner 0.625 µg/mL	0.991
[2], first compound 0.4 µg/mL, partner 1.25 µg/mL	0.894
[2], first compound 0.4 µg/mL, partner 2.5 µg/mL	0.933
[3], first compound 0.1 µg/mL, partner 0.625 µg/mL	0.884
[3], first compound 0.1 µg/mL, partner 1.25 µg/mL	0.953
[3], first compound 0.1 µg/mL, partner 2.5 µg/mL	≥ 1
[3], first compound 0.2 µg/mL, partner 0.625 µg/mL	0.812
[3], first compound 0.2 µg/mL, partner 1.25 µg/mL	0.853
[3], first compound 0.2 µg/mL, partner 2.5 µg/mL	0.866

Conditions	Bliss interaction score
[4]	0.073
[5]	0.138
[6]	-0.0532
[7]	0.0836

CCC[C@@H]1C[C@@H](C(=O)N[C@@H]([C@H]2O[C@H](SC)[C@H](O)[C@@H](O)[C@H]2O)[C@@H](C)O)N(C)C1 [Lincomycin] + Cc1onc(-c2ccccc2)c1C(=O)N[C@@H]1C(=O)N2[C@@H]1SC(C)(C)[C@@H]2C(=O)O [Oxacillin]
fitness
Conditions	first compound 0.1 µg/mL	first compound 0.2 µg/mL	first compound 0.215 µg/mL	first compound 0.4 µg/mL	first compound 0.43 µg/mL	first compound 0.8 µg/mL	first compound 0.86 µg/mL
[1], partner 0.01 µg/mL	–	0.765	0.927	0.63	0.762	–	0.507
[1], partner 0.02 µg/mL	–	0.764	0.882	0.588	0.778	–	0.483
[1], partner 0.04 µg/mL	–	0.509	0.787	0.403	0.716	0.139	0.404
[2], partner 0.002 µg/mL	0.911	0.939	–	0.913	–	–	–
[2], partner 0.004 µg/mL	0.881	0.923	–	0.926	–	–	–
[2], partner 0.008 µg/mL	0.891	0.877	–	0.83	–	–	–
[3], partner 0.0156 µg/mL	0.785	0.78	–	0.291	–	–	–
[3], partner 0.0312 µg/mL	0.655	0.682	–	0.259	–	–	–
[3], partner 0.0625 µg/mL	0.491	0.515	–	0.173	–	–	–

fitness, [2], one replicate
Conditions	partner 0.0078 µg/mL	partner 0.0155 µg/mL	partner 0.031 µg/mL	partner 0.075 µg/mL	partner 0.15 µg/mL	partner 0.3 µg/mL
first compound 0.1 µg/mL	≥ 1	≥ 1	≥ 1	–	–	–
first compound 0.2 µg/mL	≥ 1	≥ 1	0.889	–	–	–
first compound 0.4 µg/mL	≥ 1	≥ 1	0.934	0.183	0.0398	0.0489
first compound 0.8 µg/mL	–	–	–	0.403	0.0361	0.0601
first compound 1.6 µg/mL	–	–	–	0.261	0.0594	0.0563

Conditions	Bliss interaction score
[4]	0.137
[5]	0.189
[6]	-0.0676
[7]	0.119

From the supplement of paper PMC10627819
